Experimental data reported in ChEMBL document CHEMBL4507282, “Data for DCP probe BI-1950” (2021).

Assays:
[1] = system: Tyrosine-protein kinase ABL1 (Homo sapiens), P00519 [H396P]; conditions: Compound concentration 1000.0 nM
[2] = target: Activin receptor type-2A (Homo sapiens) (UniProt P27037); conditions: Compound concentration 1000.0 nM
[3] = target: Atypical kinase COQ8A, mitochondrial (Homo sapiens) (UniProt Q8NI60); conditions: Compound concentration 1000.0 nM
[4] = target: ALK tyrosine kinase receptor (Homo sapiens) (UniProt Q9UM73); conditions: Compound concentration 1000.0 nM
[5] = target: 5'-AMP-activated protein kinase catalytic subunit alpha-1 (Homo sapiens) (UniProt Q13131); conditions: Compound concentration 1000.0 nM
[6] = system: Serine/threonine-protein kinase B-raf (Homo sapiens), P15056 [V600E]; conditions: Compound concentration 1000.0 nM
[7] = target: Serine/threonine-protein kinase BRSK1 (Homo sapiens) (UniProt Q8TDC3); conditions: Compound concentration 1000.0 nM
[8] = target: Calcium/calmodulin-dependent protein kinase type II subunit alpha (Homo sapiens) (UniProt Q9UQM7); conditions: Compound concentration 1000.0 nM
[9] = target: Calcium/calmodulin-dependent protein kinase kinase 2 (Homo sapiens) (UniProt Q96RR4); conditions: Compound concentration 1000.0 nM
[10] = target: Macrophage colony-stimulating factor 1 receptor (Homo sapiens) (UniProt P07333); conditions: Compound concentration 1000.0 nM
[11] = target: Casein kinase I isoform alpha (Homo sapiens) (UniProt P48729); conditions: Compound concentration 1000.0 nM
[12] = target: Casein kinase I isoform epsilon (Homo sapiens) (UniProt P49674); conditions: Compound concentration 1000.0 nM
[13] = target: Megakaryocyte-associated tyrosine-protein kinase (Homo sapiens) (UniProt P42679); conditions: Compound concentration 1000.0 nM
[14] = system: Epidermal growth factor receptor (Homo sapiens), P00533 [L861Q]; conditions: Compound concentration 1000.0 nM
[15] = target: Focal adhesion kinase 1 (Homo sapiens) (UniProt Q05397); conditions: Compound concentration 1000.0 nM
[16] = system: Receptor-type tyrosine-protein kinase FLT3 (Homo sapiens), P36888 [N841I]; conditions: Compound concentration 1000.0 nM
[17] = system: Receptor-type tyrosine-protein kinase FLT3 (Homo sapiens), P36888 [R834Q]; conditions: Compound concentration 1000.0 nM
[18] = target: Rhodopsin kinase GRK7 (Homo sapiens) (UniProt Q8WTQ7); conditions: Compound concentration 1000.0 nM
[19] = target: Insulin receptor-related protein (Homo sapiens) (UniProt P14616); conditions: Compound concentration 1000.0 nM
[20] = system: Mast/stem cell growth factor receptor Kit (Homo sapiens), P10721 [A829P]; conditions: Compound concentration 1000.0 nM
[21] = system: Leucine-rich repeat serine/threonine-protein kinase 2 (Homo sapiens), Q5S007 [G2019S]; conditions: Compound concentration 1000.0 nM
[22] = target: Mitogen-activated protein kinase kinase kinase kinase 3 (Homo sapiens) (UniProt Q8IVH8); conditions: Compound concentration 1000.0 nM
[23] = target: MAP kinase-activated protein kinase 5 (Homo sapiens) (UniProt Q8IW41); conditions: Compound concentration 1000.0 nM
[24] = target: Hepatocyte growth factor receptor (Homo sapiens) (UniProt P08581); conditions: Compound concentration 1000.0 nM
[25] = system: Hepatocyte growth factor receptor (Homo sapiens), P08581 [M1250T]; conditions: Compound concentration 1000.0 nM
[26] = target: Misshapen-like kinase 1 (Homo sapiens) (UniProt Q8N4C8); conditions: Compound concentration 1000.0 nM
[27] = target: MAP kinase-interacting serine/threonine-protein kinase 1 (Homo sapiens) (UniProt Q9BUB5); conditions: Compound concentration 1000.0 nM
[28] = target: Mitogen-activated protein kinase kinase kinase 9 (Homo sapiens) (UniProt P80192); conditions: Compound concentration 1000.0 nM
[29] = target: Serine/threonine-protein kinase MRCK beta (Homo sapiens) (UniProt Q9Y5S2); conditions: Compound concentration 1000.0 nM
[30] = target: Muscle, skeletal receptor tyrosine-protein kinase (Homo sapiens) (UniProt O15146); conditions: Compound concentration 1000.0 nM
[31] = target: Serine/threonine-protein kinase Nek7 (Homo sapiens) (UniProt Q8TDX7); conditions: Compound concentration 1000.0 nM
[32] = target: Cyclin-dependent kinase 18 (Homo sapiens) (UniProt Q07002); conditions: Compound concentration 1000.0 nM
[33] = target: Phosphatidylinositol 4,5-bisphosphate 3-kinase catalytic subunit delta isoform (Homo sapiens) (UniProt O00329); conditions: Compound concentration 1000.0 nM
[34] = target: Phosphatidylinositol 4,5-bisphosphate 3-kinase catalytic subunit gamma isoform (Homo sapiens) (UniProt P48736); conditions: Compound concentration 1000.0 nM
[35] = target: Phosphatidylinositol 4-phosphate 5-kinase type-1 gamma (Homo sapiens) (UniProt O60331); conditions: Compound concentration 1000.0 nM
[36] = system: Proto-oncogene tyrosine-protein kinase receptor Ret (Homo sapiens), P07949 [V804M]; conditions: Compound concentration 1000.0 nM
[37] = target: Ribosomal protein S6 kinase alpha-6 (Homo sapiens) (UniProt Q9UK32); conditions: Compound concentration 1000.0 nM
[38] = target: TGF-beta receptor type-2 (Homo sapiens) (UniProt P37173); conditions: Compound concentration 1000.0 nM
[39] = target: BDNF/NT-3 growth factors receptor (Homo sapiens) (UniProt Q16620); conditions: Compound concentration 1000.0 nM
[40] = target: Dual specificity protein kinase TTK (Homo sapiens) (UniProt P33981); conditions: Compound concentration 1000.0 nM
[41] = target: Tyrosine-protein kinase receptor TYRO3 (Homo sapiens) (UniProt Q06418); conditions: Compound concentration 1000.0 nM
[42] = target: Serine/threonine-protein kinase WNK4 (Homo sapiens) (UniProt Q96J92); conditions: Compound concentration 1000.0 nM
[43] = target: Mitogen-activated protein kinase kinase kinase 19 (Homo sapiens) (UniProt Q56UN5); conditions: Compound concentration 1000.0 nM
[44] = target: Beta-2 adrenergic receptor (Homo sapiens) (UniProt P07550); conditions: Compound concentration 10.0 uM
[45] = target: Muscarinic acetylcholine receptor M4 (Homo sapiens) (UniProt P08173); conditions: Compound concentration 10.0 uM

Phosphatidylinositol 4,5-bisphosphate 3-kinase catalytic subunit gamma isoform (Homo sapiens), sequence (P48736 whole entry, looked up, canonical isoform): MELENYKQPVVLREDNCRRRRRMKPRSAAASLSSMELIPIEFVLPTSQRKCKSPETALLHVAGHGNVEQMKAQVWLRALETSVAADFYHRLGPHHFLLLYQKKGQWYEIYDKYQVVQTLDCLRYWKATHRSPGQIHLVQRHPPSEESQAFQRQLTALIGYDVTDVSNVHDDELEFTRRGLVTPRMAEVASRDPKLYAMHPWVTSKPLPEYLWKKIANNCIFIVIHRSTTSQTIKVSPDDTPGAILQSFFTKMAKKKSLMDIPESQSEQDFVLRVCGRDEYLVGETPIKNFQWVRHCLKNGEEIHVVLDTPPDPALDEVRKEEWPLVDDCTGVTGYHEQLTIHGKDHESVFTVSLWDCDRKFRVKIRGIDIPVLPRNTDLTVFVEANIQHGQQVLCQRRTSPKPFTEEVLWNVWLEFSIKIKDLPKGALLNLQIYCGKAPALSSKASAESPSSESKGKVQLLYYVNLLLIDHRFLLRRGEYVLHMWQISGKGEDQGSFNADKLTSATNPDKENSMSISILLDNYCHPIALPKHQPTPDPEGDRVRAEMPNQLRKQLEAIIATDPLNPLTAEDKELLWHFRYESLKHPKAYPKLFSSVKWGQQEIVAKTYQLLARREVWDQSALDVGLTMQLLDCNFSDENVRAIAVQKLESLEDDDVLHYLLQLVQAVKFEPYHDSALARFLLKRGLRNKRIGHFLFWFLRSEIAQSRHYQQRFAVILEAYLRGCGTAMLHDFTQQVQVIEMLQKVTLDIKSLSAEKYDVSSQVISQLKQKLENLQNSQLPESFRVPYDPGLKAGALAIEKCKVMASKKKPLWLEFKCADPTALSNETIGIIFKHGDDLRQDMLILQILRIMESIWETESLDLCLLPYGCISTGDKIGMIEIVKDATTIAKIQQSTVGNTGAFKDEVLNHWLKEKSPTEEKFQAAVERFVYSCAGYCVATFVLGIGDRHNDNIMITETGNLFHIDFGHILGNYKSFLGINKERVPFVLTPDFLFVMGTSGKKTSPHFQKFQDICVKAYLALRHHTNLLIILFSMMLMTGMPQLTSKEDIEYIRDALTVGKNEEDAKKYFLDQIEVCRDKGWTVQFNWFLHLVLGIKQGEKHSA
Phosphatidylinositol 4-phosphate 5-kinase type-1 gamma (Homo sapiens), sequence (O60331 whole entry): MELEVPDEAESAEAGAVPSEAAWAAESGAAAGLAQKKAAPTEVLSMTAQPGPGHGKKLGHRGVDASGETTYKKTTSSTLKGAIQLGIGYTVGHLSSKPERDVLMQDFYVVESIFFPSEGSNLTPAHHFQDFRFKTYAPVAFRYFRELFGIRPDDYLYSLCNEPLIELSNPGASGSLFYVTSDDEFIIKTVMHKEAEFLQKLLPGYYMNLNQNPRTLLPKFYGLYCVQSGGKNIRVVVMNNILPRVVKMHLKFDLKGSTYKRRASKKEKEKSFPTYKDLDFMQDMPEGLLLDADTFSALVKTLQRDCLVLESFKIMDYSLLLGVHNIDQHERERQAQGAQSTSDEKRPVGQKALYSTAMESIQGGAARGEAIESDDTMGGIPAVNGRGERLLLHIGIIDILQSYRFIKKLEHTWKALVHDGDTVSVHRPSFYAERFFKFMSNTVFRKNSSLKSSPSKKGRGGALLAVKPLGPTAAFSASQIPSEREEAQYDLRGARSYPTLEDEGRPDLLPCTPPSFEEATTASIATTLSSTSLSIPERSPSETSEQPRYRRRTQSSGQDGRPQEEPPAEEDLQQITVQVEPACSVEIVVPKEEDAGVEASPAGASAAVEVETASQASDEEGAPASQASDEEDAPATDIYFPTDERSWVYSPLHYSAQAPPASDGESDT
Activin receptor type-2A (Homo sapiens), sequence (P27037 whole entry): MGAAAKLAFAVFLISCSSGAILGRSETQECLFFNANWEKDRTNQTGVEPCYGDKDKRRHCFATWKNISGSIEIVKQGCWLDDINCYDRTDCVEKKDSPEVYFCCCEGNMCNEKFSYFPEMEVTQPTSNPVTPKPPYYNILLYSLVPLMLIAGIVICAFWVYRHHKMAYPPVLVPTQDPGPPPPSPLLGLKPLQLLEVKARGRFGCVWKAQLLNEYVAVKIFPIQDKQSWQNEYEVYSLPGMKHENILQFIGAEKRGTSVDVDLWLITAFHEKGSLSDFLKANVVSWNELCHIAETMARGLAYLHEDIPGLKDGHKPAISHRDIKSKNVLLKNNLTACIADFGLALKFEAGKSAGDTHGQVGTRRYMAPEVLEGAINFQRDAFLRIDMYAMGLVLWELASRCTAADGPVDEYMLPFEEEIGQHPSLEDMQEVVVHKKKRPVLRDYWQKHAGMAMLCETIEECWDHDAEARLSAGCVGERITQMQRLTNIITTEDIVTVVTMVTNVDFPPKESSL
5'-AMP-activated protein kinase catalytic subunit alpha-1 (Homo sapiens), sequence (Q13131 whole entry, looked up): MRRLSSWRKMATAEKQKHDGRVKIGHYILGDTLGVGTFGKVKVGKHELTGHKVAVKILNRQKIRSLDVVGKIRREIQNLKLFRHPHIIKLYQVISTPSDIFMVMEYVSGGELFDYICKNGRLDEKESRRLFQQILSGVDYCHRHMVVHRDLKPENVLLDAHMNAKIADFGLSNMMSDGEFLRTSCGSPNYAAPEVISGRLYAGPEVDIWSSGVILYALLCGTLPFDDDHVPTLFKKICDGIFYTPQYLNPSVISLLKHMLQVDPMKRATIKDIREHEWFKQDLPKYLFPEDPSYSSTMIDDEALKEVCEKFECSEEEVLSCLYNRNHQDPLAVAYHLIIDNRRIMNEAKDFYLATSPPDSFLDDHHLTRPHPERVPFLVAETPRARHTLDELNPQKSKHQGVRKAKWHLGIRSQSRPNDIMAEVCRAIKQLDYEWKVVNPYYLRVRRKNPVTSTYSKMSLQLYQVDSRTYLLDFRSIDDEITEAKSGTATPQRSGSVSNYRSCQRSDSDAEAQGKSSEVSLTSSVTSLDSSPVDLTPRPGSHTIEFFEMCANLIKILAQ
Mitogen-activated protein kinase kinase kinase 19 (Homo sapiens), sequence (Q56UN5 whole entry): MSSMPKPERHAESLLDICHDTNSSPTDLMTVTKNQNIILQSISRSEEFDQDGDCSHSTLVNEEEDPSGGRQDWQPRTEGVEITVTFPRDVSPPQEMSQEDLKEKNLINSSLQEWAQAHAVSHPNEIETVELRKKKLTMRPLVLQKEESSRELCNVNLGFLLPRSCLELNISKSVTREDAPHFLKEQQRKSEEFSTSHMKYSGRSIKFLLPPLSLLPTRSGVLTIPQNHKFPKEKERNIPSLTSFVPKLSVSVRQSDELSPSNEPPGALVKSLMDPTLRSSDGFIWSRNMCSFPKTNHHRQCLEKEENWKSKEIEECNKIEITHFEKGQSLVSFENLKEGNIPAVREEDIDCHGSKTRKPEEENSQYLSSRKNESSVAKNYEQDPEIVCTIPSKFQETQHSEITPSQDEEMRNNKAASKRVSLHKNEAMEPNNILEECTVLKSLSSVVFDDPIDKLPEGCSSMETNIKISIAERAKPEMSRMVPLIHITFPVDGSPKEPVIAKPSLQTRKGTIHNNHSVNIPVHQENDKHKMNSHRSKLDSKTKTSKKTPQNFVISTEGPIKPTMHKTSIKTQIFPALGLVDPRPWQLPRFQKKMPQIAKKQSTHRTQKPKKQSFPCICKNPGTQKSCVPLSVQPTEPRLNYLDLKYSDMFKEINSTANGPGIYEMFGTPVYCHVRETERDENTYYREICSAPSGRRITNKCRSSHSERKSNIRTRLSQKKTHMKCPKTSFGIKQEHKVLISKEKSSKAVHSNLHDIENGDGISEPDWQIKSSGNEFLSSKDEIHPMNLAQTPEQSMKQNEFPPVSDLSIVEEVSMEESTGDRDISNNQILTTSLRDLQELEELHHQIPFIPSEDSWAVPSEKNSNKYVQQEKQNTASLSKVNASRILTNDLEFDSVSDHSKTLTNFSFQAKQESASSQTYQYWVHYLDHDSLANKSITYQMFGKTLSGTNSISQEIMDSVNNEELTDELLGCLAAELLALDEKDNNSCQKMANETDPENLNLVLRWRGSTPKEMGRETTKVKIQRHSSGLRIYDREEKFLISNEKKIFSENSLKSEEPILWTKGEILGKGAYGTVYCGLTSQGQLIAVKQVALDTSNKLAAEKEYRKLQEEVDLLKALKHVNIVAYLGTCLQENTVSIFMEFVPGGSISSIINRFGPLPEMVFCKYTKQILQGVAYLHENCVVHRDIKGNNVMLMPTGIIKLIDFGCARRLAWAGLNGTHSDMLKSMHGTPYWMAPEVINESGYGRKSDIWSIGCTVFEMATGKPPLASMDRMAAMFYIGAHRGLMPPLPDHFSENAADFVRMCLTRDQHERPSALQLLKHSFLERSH
TGF-beta receptor type-2 (Homo sapiens), sequence (P37173 whole entry): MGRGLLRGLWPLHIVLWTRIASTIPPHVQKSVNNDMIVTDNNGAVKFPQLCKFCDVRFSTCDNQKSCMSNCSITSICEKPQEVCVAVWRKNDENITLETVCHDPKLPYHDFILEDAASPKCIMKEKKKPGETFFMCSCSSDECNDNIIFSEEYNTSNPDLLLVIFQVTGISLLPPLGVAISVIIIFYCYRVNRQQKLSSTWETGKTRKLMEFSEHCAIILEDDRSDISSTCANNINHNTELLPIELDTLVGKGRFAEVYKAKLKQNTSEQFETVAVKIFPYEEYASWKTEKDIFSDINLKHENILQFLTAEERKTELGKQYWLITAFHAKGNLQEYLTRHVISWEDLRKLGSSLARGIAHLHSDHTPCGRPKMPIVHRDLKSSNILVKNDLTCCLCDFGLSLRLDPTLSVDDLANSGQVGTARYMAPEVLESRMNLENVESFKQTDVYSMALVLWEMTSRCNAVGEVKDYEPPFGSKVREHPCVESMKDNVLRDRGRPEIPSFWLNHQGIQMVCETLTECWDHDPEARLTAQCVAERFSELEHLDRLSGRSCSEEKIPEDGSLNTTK
Casein kinase I isoform alpha (Homo sapiens), sequence (P48729 2-337 limits assumed): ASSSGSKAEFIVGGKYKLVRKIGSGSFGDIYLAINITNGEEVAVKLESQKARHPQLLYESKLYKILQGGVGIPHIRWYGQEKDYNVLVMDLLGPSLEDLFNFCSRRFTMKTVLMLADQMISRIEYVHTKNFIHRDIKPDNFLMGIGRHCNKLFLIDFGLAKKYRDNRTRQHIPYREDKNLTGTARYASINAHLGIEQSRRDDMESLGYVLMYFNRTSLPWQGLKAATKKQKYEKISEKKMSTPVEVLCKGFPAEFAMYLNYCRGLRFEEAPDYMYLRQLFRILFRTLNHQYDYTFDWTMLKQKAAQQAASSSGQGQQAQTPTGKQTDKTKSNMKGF

C[C@H](NC(=O)c1cnc2n1[C@](C)(Cc1ccc(C#N)cc1)C(=O)N2c1cc(Cl)c(F)c(Cl)c1)C(=O)NC1(c2ccccn2)CC1 [BI 1950]
inactive: residual activity [1] 83% | residual activity [2] 92% | residual activity [3] 100% | residual activity [4] 100% | residual activity [5] 100% | residual activity [6] 100% | residual activity [7] 100% | residual activity [8] 96% | residual activity [9] 100% | residual activity [10] 100% | residual activity [11] 100% | residual activity [12] 82% | residual activity [13] 100% | residual activity [14] 100% | residual activity [15] 100% | residual activity [16] 78% | residual activity [17] 90% | residual activity [18] 100% | residual activity [19] 100% | residual activity [20] 100% | residual activity [21] 100% | residual activity [22] 100% | residual activity [23] 96% | residual activity [24] 100% | residual activity [25] 100% | residual activity [26] 100% | residual activity [27] 93% | residual activity [28] 100% | residual activity [29] 100% | residual activity [30] 100% | residual activity [31] 100% | residual activity [32] 100% | residual activity [33] 95% | residual activity [34] 86% | residual activity [35] 80% | residual activity [36] 100% | residual activity [37] 91% | residual activity [38] 100% | residual activity [39] 100% | residual activity [40] 100% | residual activity [41] 100% | residual activity [42] 100% | residual activity [43] 100% | inhibition [44] -9.72% | inhibition [45] 12.1%

C[C@@]1(Cc2ccc(C#N)cc2)C(=O)N(c2cc(Cl)cc(Cl)c2)c2ncc(C(=O)NC3(c4nc(C5CCC5)no4)CC3)n21 [BI 9446]
inactive: residual activity [1] 100% | residual activity [2] 92% | residual activity [3] 90% | residual activity [4] 100% | residual activity [5] 100% | residual activity [6] 100% | residual activity [7] 100% | residual activity [8] 89% | residual activity [9] 100% | residual activity [10] 100% | residual activity [11] 100% | residual activity [12] 100% | residual activity [13] 100% | residual activity [14] 100% | residual activity [15] 100% | residual activity [16] 89% | residual activity [17] 100% | residual activity [18] 100% | residual activity [19] 100% | residual activity [20] 100% | residual activity [21] 100% | residual activity [22] 78% | residual activity [23] 100% | residual activity [24] 100% | residual activity [25] 100% | residual activity [26] 100% | residual activity [27] 100% | residual activity [28] 100% | residual activity [29] 100% | residual activity [30] 100% | residual activity [31] 100% | residual activity [32] 100% | residual activity [33] 73% | residual activity [34] 95% | residual activity [35] 100% | residual activity [36] 100% | residual activity [37] 100% | residual activity [38] 99% | residual activity [39] 100% | residual activity [40] 94% | residual activity [41] 100% | residual activity [42] 100% | residual activity [43] 100% | inhibition [44] -7.08% | inhibition [45] 21.6%
